Laboratory results: ChEMBL document CHEMBL3826947, “New 4-Acyl-1-phenylaminocarbonyl-2-phenylpiperazine Derivatives as Potential Inhibitors of Adenovirus Infection. Synthesis, Biological Evaluation, and Structure-activity Relationships” (J Med Chem, 2016)

Columns and labels:
Human adenovirus 5 [1] = assay: Antiviral activity against HAdV5 infected in human A549 cells assessed as inhibition of viral entry at 50 uM preincubated for 45 mins followed by cell addition measured after 48 hrs by GFP reporter gene assay relative to control; format: functional; settings: Human mastadenovirus C
Human adenovirus 5 [2] = assay: Antiviral activity against HAdV5 infected in 293beta5 cells assessed as inhibition of plaque formation at 10 uM after 7 days by GFP reporter gene assay relative to control; format: functional; settings: Human mastadenovirus C, 293beta5, 168 h
[3] = Cytotoxicity against human A549 cells assessed as cell viability after 48 hrs by Alamar blue assay; format: cell-based

SMILES | inhibition at 50 µM (Human adenovirus 5 [1]) [%] | inhibition at 10 µM (Human adenovirus 5 [2]) [%] | CC50 at 48 h [3] [µM]
CC(C)(C)OC(=O)N1CCN(C(=O)Nc2ccc(C(F)(F)F)cc2)C(c2ccccc2)C1 (stereo not drawn) | 75 | 71 | 42.1
O=C(c1cc2ccccc2o1)N1CCN(C(=O)Nc2ccc(C(F)(F)F)cc2)C(c2ccccc2)C1 (stereo not drawn) | 61 | 100 | 70.7
COc1ccc(C(=O)N2CCN(C(=O)C(C)(C)C)CC2C)cc1 (stereo not drawn) | < 20 | 0 | 
CC1CN(C(=O)c2ccccc2)CCN1C(=O)c1ccc([N+](=O)[O-])cc1 (stereo not drawn) | < 20 | 0 | 
COc1ccc(NC(=O)N2CCN(C(=O)C(C)(C)C)CC2C)cc1 (stereo not drawn) | < 20 | 0 | 
CC1CN(C(=O)OC(C)(C)C)CCN1C(=S)Nc1ccc([N+](=O)[O-])cc1 (stereo not drawn) | < 20 | 100 | 26.3
COc1ccc(NC(=O)N2CCN(C(=O)c3cc4ccccc4o3)CC2C)cc1 (stereo not drawn) | < 20 | 34 | 
COc1ccc(NC(=O)N2CCN(C(=O)OC(C)(C)C)CC2c2ccccc2)cc1 (stereo not drawn) | 39 | 79 | 133
CC1CN(C(=O)OC(C)(C)C)CCN1C(=O)Nc1ccc(Cl)c(C(F)(F)F)c1 (stereo not drawn) | 72 | 100 | 20.8
Cc1ccc(NC(=O)N2CCN(C(=O)OC(C)(C)C)CC2c2ccccc2)cc1 (stereo not drawn) | 65 | 63 | 165
COc1ccc(C(=O)N2CCN(C(=O)c3ccccc3)CC2C)cc1 (stereo not drawn) | 0 | 0 | 
CC1CN(C(=O)OC(C)(C)C)CCN1C(=O)Nc1ccc(C(F)(F)F)cc1 (stereo not drawn) | 57 | 31 | 137
CC1CN(C(=O)OC(C)(C)C)CCN1C(=O)Nc1ccc(Cl)cc1 (stereo not drawn) | 37 | 62 | 150
COc1ccccc1NC(=O)N1CCN(C(=O)c2cc3ccccc3o2)CC1C (stereo not drawn) | 0 | 16 | 
CC1CN(C(=O)c2cc3ccccc3o2)CCN1C(=O)Nc1ccc(C#N)cc1 (stereo not drawn) | 78 | 83 | 118
CC1CN(C(=O)OC(C)(C)C)CCN1C(=O)c1ccc([N+](=O)[O-])cc1 (stereo not drawn) | < 20 | 34 | 
COc1ccc(NC(=O)N2CCN(C(=O)C(C)(C)C)CC2c2ccccc2)cc1 (stereo not drawn) | 0 | 70 | 199
CC1CN(C(=O)OC(C)(C)C)CCN1C(=O)Nc1cc(C(F)(F)F)ccc1Cl (stereo not drawn) | 31 | 96 | 63.5
CC1CN(C(=O)C(C)(C)C)CCN1C(=S)Nc1ccc([N+](=O)[O-])cc1 (stereo not drawn) | < 20 | 64 | 
CC(C)(C)OC(=O)N1CCN(C(=O)Nc2ccc(Cl)cc2)C(c2ccccc2)C1 (stereo not drawn) | 96 | 86 | 17.1
CC1CN(C(=O)C(C)(C)C)CCN1C(=O)Nc1ccc([N+](=O)[O-])cc1 (stereo not drawn) | 50 | 0 | 
CC1CN(C(=O)c2cc3ccccc3o2)CCN1C(=O)Nc1ccc([N+](=O)[O-])cc1 (stereo not drawn) | 86 | 94 | 51.1
CC1CN(C(=O)c2cc3ccccc3o2)CCN1C(=O)Nc1ccc(Cl)cc1 (stereo not drawn) | 36 | 70 | 144

SMILES | inhibition at 50 µM (Human adenovirus 5 [1]) [%] | inhibition at 10 µM (Human adenovirus 5 [2]) [%] | CC50 at 48 h [3] [µM]
CC1CN(C(=O)OC(C)(C)C)CCN1C(=O)Nc1ccc([N+](=O)[O-])cc1 (stereo not drawn) | 65 | 91 | 143
CC1CN(C(=O)c2cc3ccccc3o2)CCN1C(=O)Nc1ccccc1F (stereo not drawn) | 0 | 51 | 
CC1CN(C(=O)OC(C)(C)C)CCN1C(=O)Nc1ccccc1[N+](=O)[O-] (stereo not drawn) | 0 | 50 | 
CC1CN(C(=O)c2ccccc2)CCN1C(=S)Nc1ccc([N+](=O)[O-])cc1 (stereo not drawn) | 41 | 94 | 31.4
CC(C)(C)OC(=O)N1CCN(C(=O)Nc2ccc(F)cc2)C(c2ccccc2)C1 (stereo not drawn) | 70 | 76 | 110
CC1CN(C(=O)c2cc3ccccc3o2)CCN1C(=O)Nc1ccccc1 (stereo not drawn) | 0 | 11 | 
COc1ccc(NC(=O)N2CCN(C(=O)c3ccccc3)CC2C)cc1 (stereo not drawn) | 50 | 0 | 
CC1CN(C(=O)C(C)(C)C)CCN1C(=O)c1ccc([N+](=O)[O-])cc1 (stereo not drawn) | < 20 | 23 | 
CC1CN(C(=O)c2cc3ccccc3o2)CCN1C(=O)Nc1ccc(F)cc1 (stereo not drawn) | 0 | 92 | 220
CC(C)(C)OC(=O)N1CCN(C(=O)Nc2ccc(C#N)cc2)C(c2ccccc2)C1 (stereo not drawn) | 45 | 67 | 91.3
O=C(c1cc2ccccc2o1)N1CCN(C(=O)Nc2ccc(F)cc2)C(c2ccccc2)C1 (stereo not drawn) | 88 | 99 | 12.5
CC(C)(C)OC(=O)N1CCN(C(=O)Nc2ccccc2[N+](=O)[O-])C(c2ccccc2)C1 (stereo not drawn) | 62 | 100 | 82.2
CC1CN(C(=O)c2ccccc2)CCN1C(=O)Nc1ccc([N+](=O)[O-])cc1 (stereo not drawn) | 50 | 72 | 
CC(C)(C)OC(=O)N1CCN(C(=O)Nc2cc(C(F)(F)F)ccc2Cl)C(c2ccccc2)C1 (stereo not drawn) | 89 | 100 | 93.4
CC(C)(C)C(=O)N1CCN(C(=O)Nc2ccc(C#N)cc2)C(c2ccccc2)C1 (stereo not drawn) | 74 | 84 | 147
COc1ccc(NC(=O)N2CCN(C(=O)OC(C)(C)C)CC2C)cc1 (stereo not drawn) |  | 49 | 
CC1CN(C(=O)c2cc3ccccc3o2)CCN1C(=O)Nc1ccccc1[N+](=O)[O-] (stereo not drawn) | 0 | 91 | 203
CC(C)(C)C(=O)N1CCN(C(=O)Nc2ccc([N+](=O)[O-])cc2)C(c2ccccc2)C1 (stereo not drawn) | 60 | 44 | 102
CC1CN(C(=O)c2cc3ccccc3o2)CCN1C(=O)Nc1ccc(C(F)(F)F)cc1 (stereo not drawn) | 60 | 92 | 82.2
CC1CN(C(=O)c2cc3ccccc3o2)CCN1C(=O)Nc1ccc(F)cc1F (stereo not drawn) | 0 | 34 | 
CC(C)(C)OC(=O)N1CCN(C(=O)Nc2ccc(Cl)c(C(F)(F)F)c2)C(c2ccccc2)C1 (stereo not drawn) | 93 | 100 | 27.5
COc1ccc(C(=O)N2CCN(C(=O)OC(C)(C)C)CC2C)cc1 (stereo not drawn) | < 20 | 34 | 
CC1CN(C(=O)c2cc3ccccc3o2)CCN1C(=O)Nc1ccccc1Br (stereo not drawn) | 44 | 56 | 
